Experimental data taken from ChEMBL document CHEMBL1201862, “PubChem BioAssay data set” (2004).
Activity calls are given as the source filed them.

Tests used:
[1] = HepG2 cell cytotoxicity, dose response, cytotoxicity control for non-replicating M. tuberculosis project (AID 489018); type: functional; settings: Mycobacterium tuberculosis
[2] = Luminescence Cell-Based Dose Retest to Confirm Inhibitors of Cancer Stem Cells. [Related pubchem assays (depositor defined):AID2717, AID2721]; type: functional; settings: Homo sapiens
[3] = Luminescence-based dose response cell-based high throughput screening assay for cytotoxic compounds using the IEC-6 intestinal epithelial cell line. [Related pubchem assays: 1858 (Summary AID.), 1825 (Counterscreen.), 1907 (Confirmation screen.)]; type: functional
[4] = THP-1 cell cytotoxicity, dose response, cytotoxicity control for non-replicating M. tuberculosis project (AID 489025); type: functional
[5] = Vero E6 cell cytotoxicity, dose response, cytotoxicity control for non-replicating M. tuberculosis project, secondary assay (AID 492998); type: functional, VeroE6; settings: Vero C1008
cells = type: functional
Paired box protein Pax-8 = Paired box protein Pax-8 (Homo sapiens, UniProt Q06710); assay: PAX8 transcriptional activity inhibition in RMG-I – RMG-I cells, luciferase, cherry-pick, dose response (AID 687027); type: functional, cell-based;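 also: luciferase reporter driven by Pax8 target thyroperoxidase promoter measured by SteadyGlo luminescence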
Estrogen receptor beta = Estrogen receptor beta (Homo sapiens, UniProt Q92731); assay: blockers of SRC-3 recruitment to ERβ – biochemical, ELISA, streptavidin-HRP readout, orthogonal assay, confirmation (AID 1060)
Large T antigen = Large T antigen (Simian virus 40, UniProt P03070); type: functional, Betapolyomavirus macacae;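 also: Confirmatory-stage PubChem screen for compounds that inhibit SV40 T antigen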
fMet-Leu-Phe receptor = biological target: T1, fMet-Leu-Phe receptor (Homo sapiens, UniProt P21462); assay: formyl peptide receptor binders – dose response (AID 519); type: functional
T1 sequence (P21462 whole entry): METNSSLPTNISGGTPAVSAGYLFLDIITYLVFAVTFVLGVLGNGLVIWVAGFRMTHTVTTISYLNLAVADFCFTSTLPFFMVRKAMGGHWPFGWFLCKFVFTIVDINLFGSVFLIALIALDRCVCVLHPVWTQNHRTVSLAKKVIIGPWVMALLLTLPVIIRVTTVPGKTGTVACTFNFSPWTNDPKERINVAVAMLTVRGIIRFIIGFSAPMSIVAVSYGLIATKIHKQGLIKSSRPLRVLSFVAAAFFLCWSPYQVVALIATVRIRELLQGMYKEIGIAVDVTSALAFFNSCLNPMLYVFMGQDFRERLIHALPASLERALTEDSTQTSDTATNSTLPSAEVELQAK

Nonstructural protein 1 = Nonstructural protein 1 (Influenza A virus, UniProt Q194T2); type: functional, Influenza A virus (A/California/07/2009(H1N1))
Bcl-2-like protein 10 = Bcl-2-like protein 10 (Homo sapiens, UniProt Q9HD36); assay: Bcl-B/TR3 peptide binding disruption – biochemical, fluorescence polarization, FITC-TR3 peptide, selectivity assay for Bfl-1 inhibitor project, primary screen (AID 748);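 also: fluorescence polarization from a fluorescein-labelled TR3 peptide binding purified Bcl-B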
[6] = biological target: T2, Apoptotic protease-activating factor 1 (Homo sapiens, UniProt O14727); type: functional
T2 sequence (O14727 whole entry): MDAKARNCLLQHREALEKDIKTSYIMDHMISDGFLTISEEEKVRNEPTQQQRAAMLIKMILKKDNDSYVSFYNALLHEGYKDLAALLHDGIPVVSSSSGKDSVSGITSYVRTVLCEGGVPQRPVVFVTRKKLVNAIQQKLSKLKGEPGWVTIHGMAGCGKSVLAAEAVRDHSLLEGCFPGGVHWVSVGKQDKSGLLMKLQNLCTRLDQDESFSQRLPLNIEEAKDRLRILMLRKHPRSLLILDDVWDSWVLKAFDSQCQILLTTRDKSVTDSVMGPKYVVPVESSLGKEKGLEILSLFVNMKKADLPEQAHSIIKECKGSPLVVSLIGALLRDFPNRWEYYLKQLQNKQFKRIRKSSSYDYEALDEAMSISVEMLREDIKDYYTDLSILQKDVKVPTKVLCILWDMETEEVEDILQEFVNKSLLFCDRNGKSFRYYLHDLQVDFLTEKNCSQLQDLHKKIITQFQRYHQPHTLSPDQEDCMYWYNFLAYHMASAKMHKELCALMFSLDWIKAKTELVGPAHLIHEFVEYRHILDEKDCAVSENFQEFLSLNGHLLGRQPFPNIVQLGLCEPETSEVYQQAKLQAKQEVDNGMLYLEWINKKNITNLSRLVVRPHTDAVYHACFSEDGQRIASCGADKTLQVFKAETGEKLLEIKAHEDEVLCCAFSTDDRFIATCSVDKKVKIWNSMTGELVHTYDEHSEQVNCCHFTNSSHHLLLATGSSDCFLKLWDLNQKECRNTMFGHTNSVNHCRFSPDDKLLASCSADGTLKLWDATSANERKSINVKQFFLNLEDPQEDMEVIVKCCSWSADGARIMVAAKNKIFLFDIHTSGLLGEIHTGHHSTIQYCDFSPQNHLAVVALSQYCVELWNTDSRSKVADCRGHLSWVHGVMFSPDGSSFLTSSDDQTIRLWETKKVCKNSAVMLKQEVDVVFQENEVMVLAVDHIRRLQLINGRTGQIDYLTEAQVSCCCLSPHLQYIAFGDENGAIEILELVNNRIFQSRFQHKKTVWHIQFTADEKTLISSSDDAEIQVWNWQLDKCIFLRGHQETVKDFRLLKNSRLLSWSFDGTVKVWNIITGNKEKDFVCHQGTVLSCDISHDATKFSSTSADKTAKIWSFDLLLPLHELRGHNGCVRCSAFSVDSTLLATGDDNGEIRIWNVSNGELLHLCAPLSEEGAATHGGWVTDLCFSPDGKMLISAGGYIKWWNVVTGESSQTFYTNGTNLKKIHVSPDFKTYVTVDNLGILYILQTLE

NADPH oxidase 1 = NADPH oxidase 1 (Homo sapiens, UniProt Q9Y5S8); assay: Luminescence-based cell-based dose response assay to identify inhibitors of NADPH oxidase 1 (NOX1).; type: functional
[7] = biological target: Sphingosine 1-phosphate receptor 2 (Homo sapiens, UniProt O95136); assay: Dose Response Cell Based Assay for Agonists of the S1P2 Receptor of Purchased Analogues. [Related pubchem assays: 729, 843, 854, 736 ]; type: functional
[8] = viability loss of HPDE-C7K cells – cell-based, fluorescence, HTS, primary screen (AID 431); type: functional; settings: Homo sapiens
[9] = HPDE-C7 pancreatic duct cell viability loss – fluorescence, HTS (AID 430); type: functional, cell-based; settings: Homo sapiens

Estrogen receptor beta, sequence (Q92731 whole entry): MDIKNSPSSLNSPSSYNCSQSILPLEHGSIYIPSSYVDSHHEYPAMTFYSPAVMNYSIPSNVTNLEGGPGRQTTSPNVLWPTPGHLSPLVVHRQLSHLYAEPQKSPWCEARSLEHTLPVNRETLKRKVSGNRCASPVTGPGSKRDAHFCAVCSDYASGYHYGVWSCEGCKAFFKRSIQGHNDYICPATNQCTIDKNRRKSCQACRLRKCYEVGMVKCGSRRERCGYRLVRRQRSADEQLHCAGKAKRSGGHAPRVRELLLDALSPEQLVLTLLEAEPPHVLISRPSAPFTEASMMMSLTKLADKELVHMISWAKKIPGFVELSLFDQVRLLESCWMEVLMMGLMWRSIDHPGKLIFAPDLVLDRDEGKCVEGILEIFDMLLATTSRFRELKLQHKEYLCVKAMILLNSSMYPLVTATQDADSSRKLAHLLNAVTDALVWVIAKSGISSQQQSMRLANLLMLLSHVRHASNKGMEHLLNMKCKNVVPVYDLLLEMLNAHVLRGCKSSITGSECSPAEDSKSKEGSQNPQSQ
Nonstructural protein 1, sequence (Q194T2 whole entry): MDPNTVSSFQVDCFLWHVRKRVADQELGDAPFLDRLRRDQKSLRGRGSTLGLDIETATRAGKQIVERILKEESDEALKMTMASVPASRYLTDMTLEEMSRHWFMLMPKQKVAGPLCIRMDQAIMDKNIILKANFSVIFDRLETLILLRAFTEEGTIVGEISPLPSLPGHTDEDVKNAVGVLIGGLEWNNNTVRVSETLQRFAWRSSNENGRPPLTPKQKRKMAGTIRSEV
Bcl-2-like protein 10, sequence (Q9HD36 whole entry): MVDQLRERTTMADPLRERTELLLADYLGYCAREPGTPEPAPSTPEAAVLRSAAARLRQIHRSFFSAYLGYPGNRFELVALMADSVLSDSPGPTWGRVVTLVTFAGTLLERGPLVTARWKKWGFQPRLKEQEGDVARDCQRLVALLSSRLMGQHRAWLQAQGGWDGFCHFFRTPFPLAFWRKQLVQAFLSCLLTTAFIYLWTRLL
Sphingosine 1-phosphate receptor 2, sequence (O95136 whole entry): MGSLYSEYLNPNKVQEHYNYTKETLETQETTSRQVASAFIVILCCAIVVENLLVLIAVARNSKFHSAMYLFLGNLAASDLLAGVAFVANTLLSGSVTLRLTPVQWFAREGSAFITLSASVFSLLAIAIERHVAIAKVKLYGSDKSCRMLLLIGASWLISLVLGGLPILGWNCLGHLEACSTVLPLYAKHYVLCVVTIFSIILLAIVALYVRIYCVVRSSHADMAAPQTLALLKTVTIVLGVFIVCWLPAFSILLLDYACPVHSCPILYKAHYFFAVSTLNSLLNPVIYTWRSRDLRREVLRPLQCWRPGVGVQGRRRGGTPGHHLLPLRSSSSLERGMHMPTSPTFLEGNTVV
Large T antigen, sequence (P03070 whole entry): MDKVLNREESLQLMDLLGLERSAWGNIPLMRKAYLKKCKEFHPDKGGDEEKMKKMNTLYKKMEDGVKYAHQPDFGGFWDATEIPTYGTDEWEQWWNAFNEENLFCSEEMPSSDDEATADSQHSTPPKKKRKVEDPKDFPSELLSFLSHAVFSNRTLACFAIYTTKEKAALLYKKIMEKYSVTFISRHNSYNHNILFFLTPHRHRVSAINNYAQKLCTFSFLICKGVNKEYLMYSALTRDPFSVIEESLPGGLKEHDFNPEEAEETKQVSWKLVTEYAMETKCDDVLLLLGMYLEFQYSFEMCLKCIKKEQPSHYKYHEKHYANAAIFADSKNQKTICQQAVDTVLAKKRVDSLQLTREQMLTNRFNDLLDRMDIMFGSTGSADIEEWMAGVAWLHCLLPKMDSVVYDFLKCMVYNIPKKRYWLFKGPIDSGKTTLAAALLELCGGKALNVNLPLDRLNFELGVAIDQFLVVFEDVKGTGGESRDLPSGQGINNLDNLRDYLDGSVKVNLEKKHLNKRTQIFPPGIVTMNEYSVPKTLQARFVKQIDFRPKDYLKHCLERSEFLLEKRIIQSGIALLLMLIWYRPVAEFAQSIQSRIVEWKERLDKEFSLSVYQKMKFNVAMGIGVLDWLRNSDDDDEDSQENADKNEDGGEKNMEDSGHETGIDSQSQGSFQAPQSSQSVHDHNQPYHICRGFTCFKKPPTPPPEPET
Paired box protein Pax-8, sequence (Q06710 whole entry): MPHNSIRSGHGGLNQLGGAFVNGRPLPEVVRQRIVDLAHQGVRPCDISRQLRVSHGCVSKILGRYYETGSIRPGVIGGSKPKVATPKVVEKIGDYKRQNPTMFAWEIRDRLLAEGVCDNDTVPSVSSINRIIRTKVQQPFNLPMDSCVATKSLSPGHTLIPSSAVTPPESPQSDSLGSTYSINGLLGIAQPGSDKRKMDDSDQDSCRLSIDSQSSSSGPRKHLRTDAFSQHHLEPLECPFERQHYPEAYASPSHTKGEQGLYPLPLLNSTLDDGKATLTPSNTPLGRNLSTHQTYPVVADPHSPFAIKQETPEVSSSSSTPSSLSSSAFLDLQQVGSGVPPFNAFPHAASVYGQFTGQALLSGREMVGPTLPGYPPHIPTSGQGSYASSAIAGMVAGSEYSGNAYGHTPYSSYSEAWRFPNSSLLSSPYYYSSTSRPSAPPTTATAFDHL
NADPH oxidase 1, sequence (Q9Y5S8 whole entry): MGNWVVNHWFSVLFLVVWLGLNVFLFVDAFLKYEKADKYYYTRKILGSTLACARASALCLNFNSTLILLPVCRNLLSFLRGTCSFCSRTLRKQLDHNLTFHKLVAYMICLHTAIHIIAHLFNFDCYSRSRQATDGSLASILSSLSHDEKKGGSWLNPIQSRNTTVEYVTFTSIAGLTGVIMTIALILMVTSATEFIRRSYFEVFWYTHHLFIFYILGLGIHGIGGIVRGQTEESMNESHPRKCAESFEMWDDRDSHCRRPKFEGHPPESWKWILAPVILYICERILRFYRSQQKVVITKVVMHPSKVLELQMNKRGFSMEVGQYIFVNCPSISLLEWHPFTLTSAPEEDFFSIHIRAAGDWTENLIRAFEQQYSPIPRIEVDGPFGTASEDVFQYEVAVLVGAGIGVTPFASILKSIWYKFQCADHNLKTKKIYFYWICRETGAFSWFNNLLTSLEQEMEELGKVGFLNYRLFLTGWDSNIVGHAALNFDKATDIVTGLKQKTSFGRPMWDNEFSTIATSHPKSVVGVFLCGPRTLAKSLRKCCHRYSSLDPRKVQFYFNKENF

## O=C(Nc1ccc(N2CCN(C(=O)c3cccs3)CC2)cc1)c1ccc([N+](=O)[O-])o1
[1]
  CC50: > 20 µM (active)
[2]
  AC50: 1.5 µM (active)
[3]
  IC50: 1.77 µM (active)
[4]
  CC50: 1.18 µM (active)
[5]
  CC50: 1.46 µM (active)
cells
  IC50: < 0.1 µM (active)
Paired box protein Pax-8
  AC50: 1.96 µM (active)

## CCOC(=O)N1CCN(c2cc(NCCC(=O)O)c3c4c(onc24)-c2ccccc2C3=O)CC1
Estrogen receptor beta
  IC50: 5.41 µM (not active)
Large T antigen
  IC50: > 100 µM (active)
fMet-Leu-Phe receptor
  Ki: > 66.7 µM (inactive)
Nonstructural protein 1
  IC50: 20.3 µM (active)
Bcl-2-like protein 10
  IC50: 7.52 µM (active)
[6]
  IC50: 25.6 µM (active)

## CC(=O)N(C)c1ccc(NC(=O)Nc2ccc(Cl)cc2)cc1
NADPH oxidase 1
  IC50: > 20 µM (not active)

## CCCNC(=O)CN(C)CC(=O)c1cc(C)n(Cc2ccccc2)c1C
[7]
  EC50: > 30 µM (not active)

## COc1cccc(C2C=C(c3ccc(OC)cc3OC)Nc3nnnn32)c1 (configuration not stated)
[8]
  EC50: 8.72 µM (active)
[9]
  EC50: 9.03 µM (active)
